Experimental data: US7034159B2, “Pharmaceutical compositions comprising 1-isopropyl-3-[(4-m-toluidino-3-pyridyl)sulphonyl]-urea as active ingredient” (Cosma S.p.A., priority 2002, dated 2006)
Read-outs that look alike come from different tables or passages of the source.

Legend:
[1] = Kondo et al. 1994, susceptibility to humidity/water, cited from earlier work
[2] = Prolonged ICH stability test with pure solid form II, polymorphic transformation followed by FT-IR in KBr; format: physicochemical; details: 25°±2C and 60±5% relative humidity, after 13 months
Method: Prolonged Test with Pure Solid Form II at 25°±2C and 60±5% of Relative Humidity. This type of test which is prescribed according to ICH (Q1A, “Stability testing of new Drug Substances and new Drug Products”, 1st edition Oct. 27, 1997 and 2nd edition Nov. 8, 2000) follows possible degradation of the samples under more mild conditions, but over prolonged periods. The inventors of the present patent application have subjected a series of pure samples of form II of torsemide to this test, and have assayed with the frequency and to the prescribed terms, the possible polymorphic transformations of the samples through the registration of the FT-IR spectra in KBr on the Jasco apparatus.

[3] = Drastic test with pure solid form II at 80° C. for two days in the absence of light; format: physicochemical
Method: Drastic Test with Pure Solid Form II at 80° C. for Two Days (Carried Out in the Absence of Light).

[4] = Accelerated ICH stability test with pure solid form II, polymorphic transformation followed by FT-IR in KBr; format: physicochemical; details: 40°±2C and 75±5% relative humidity, over 6 months
From the text: For detectable polymorphic transformations is intended transformations visible from changes of the FT-IR spectrum of form II of torsemide registered in KBr. Specifically, the formation of a contamination of 1% or greater (by weight) of form I of torsemide in a sample of pure form II of torsemide would be a detectable polymorphic transformation by means of the relative change of the FT-IR spectrum registered in KBr which would imply the appearance of a peak in the position at 1697 cm^−1. Accelerated Test with Pure Solid Form II at 40°±2C and 75±5% of Relative Humidity. This type of test which is prescribed according to ICH (Q1A, “Stability testing of new Drug Substances and new Drug Products”, 1st edition Oct. 27, 1997 and 2nd edition Nov. 8, 2000) allows, according to internationally recognised procedures, to extrapolate the results obtained with this accelerated test to a mock storage period at room temperature for over 2 years. The inventors of the present patent application have subjected a series of pure samples of form II of torsemide to this test, and have assayed with the frequency and to the prescribed terms, the possible polymorphic transformations of the samples through registration of the FT-IR spectra in KBr on a Jasco apparatus.

[5] = Transformation of form II suspended in water (strong heating or prolonged treatment); format: physicochemical; details: suspended in water and strongly heated, or suspended in water and subjected to prolonged treatment
From the text: 27, 1997 and 2nd edition Nov. 8, 2000) and recognised on the world scale for the evaluation of the stability of pharmaceutical substances.
Form I of torsemide is obtainable from form II of torsemide as above according to the instructions of Kondo, namely by suspension of an aliquot of form II in water (approx. 23 parts by weight) and subsequent stirring for 20 days at room temperature. The melting point of form I of torsemide, used by the inventors of the present patent application, measured with a Büchi B-540 according to USP class 1a (temperature increments of 1° C.±0.5° C./min starting from 10° C. from the expected melting point, inserting the sample at 5° C. from the melting point, then 1° C.±0.5° C./min until reaching the melting point), is 160.1°–160.5° C.

| SMILES | relative stability of the polymorphic form [1] | polymorphic transformation (FT-IR in KBr, Jasco) [2] | relative stability of the polymorphic form ([1]; listed as form II) | polymorphic transformation [3] | polymorphic transformation (FT-IR in KBr, Jasco) [4] | polymorphic transformation in aqueous suspension [5] |
| --- | --- | --- | --- | --- | --- | --- |
| Cc1cccc(Nc2ccncc2S(=O)(=O)NC(=O)NC(C)C)c1 [form I, 1-isopropyl-3-[(4-m-toluidino-3-pyridyl)sulphonyl]-urea] | sufficiently stable | – | – | – | – | – |
| Cc1cccc(Nc2ccncc2S(=O)(=O)NC(=O)NC(C)C)c1 [form II of torsemide, 1-isopropyl-3-[(4-m-toluidino-3-pyridyl)sulphonyl]-urea] | – | could not see any detectable polymorphic transformation | poorly stable | does not show a detectable polymorphic transformation | no detectable polymorphic transformation | transforms into form I |
